Experimental data: PubChem BioAssay (NCI)
Several values for one entry are separate records, joined by “and”; a condition that tells them apart may be missing. Identical values can stand only once.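 Assay format: 96-well plates, 48-hour exposure. GI50 marks 50% less growth. TGI is the concentration that stops growth completely.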

Test system: OVCAR-4 ovarian
Assay: inhibition of tumour cell growth, NCI panel, 48 h

| SMILES | GI50 [µM] | TGI [µM] |
| --- | --- | --- |
| Cn1ccc2c3c(Oc4ccc(NC(N)=O)cc4)ccnc3ccc21 | > 100 | > 100 |
| CC(=O)O/N=C(/C)c1ccccc1O | – | > 100 |
| CC(=O)OCCOCNC(=S)N/N=C(\C)c1cnccn1 | – | > 100 |
| O=C(Nc1ccccc1-c1nn(C(=S)Nc2ccccc2)c(=S)n(C(=S)Nc2ccccc2)c1=O)C(F)(F)F | – | > 31.6 |
| O=c1c(-c2ccccc2)c2oc(c1-c1ccccc1)CSCc1cccc(c1)CSC2 | – | > 100 |
| CN(C)CCn1c2c3ccccc3ccc2c2oc(=O)c3ccccc3c21 | – | 28.1 |

Test system: UO-31 renal
Assay: inhibition of tumour cell growth, NCI panel, 48 h

| SMILES | TGI | GI50 |
| --- | --- | --- |
| CCOC(=O)C1=C(C(=O)OCC)C2c3ccccc3C=CN2C(C(=O)OCC)=C(SC)S1 (configuration not stated) | > 100 µM | – |
| CCCCCCCCCCCCCCCC[N+](C)(C)Cc1ccccc1 | 22.8 µM and 8.18 µM | 2.98 µM and 2.01 µM |
| CC(=O)NNc1nc(C)c(C(=O)/C=C/c2ccc(NC(C)=O)cc2)s1 | > 100 µM | – |
| CCCCCC[C@@H]1CCC2C(CO)[C@@H](O)CC[C@@H]2C1 (some centres not stated) | 38.7 µM | – |
| S=c1sc2c(n1-c1ccccc1)NC=NC2S (configuration not stated) | > 100 µM | – |
| Cc1ccc(/C=C/C(=O)CCN(C)C)cc1 | 33.8 µM | – |
| Cc1ccc(Oc2ccc(C)cc2N)cc1 | > 100 µM | – |
| c1ccc(NCn2cnc3ccccc32)cc1 | > 100 µM | – |
| O=C(Oc1ccc(Cl)cc1)c1ccccc1Nc1ccnc(C(F)(F)F)c1 | > 100 µM | 28.2 µM |
| Cc1cc2c(C)[nH]nc2c(C(=O)O)c1C | > 100 µM | – |
| N#C/C(=C\c1cccc(Cl)c1Cl)c1ccccc1 | > 91.2 µM | – |
| C/C(=N/Nc1ccc([N+](=O)[O-])cc1[N+](=O)[O-])C(CC(C(=O)NCc1ccccc1)/C(C)=N\Nc1ccc([N+](=O)[O-])cc1[N+](=O)[O-])C(=O)NCc1ccccc1 (configuration not stated) | 14.2 µM | – |
| COc1ccc(-c2cn[nH]c2-c2cc(OC)c(OC)c(OC)c2)cc1 | 15.2 µM | 0.0572 µM |
| N[C@@H]1CCCC[C@@H]1N.O=P([O-])([O-])CN(CCN(CP(=O)([O-])[O-])CP(=O)([O-])[O-])CP(=O)([O-])[O-].[Pt+2] | > 25 µM | > 25 µM |
| CCC(=C/[C@H](C)C/C=C/C(C)=C/[C@@H](C)C(=O)[C@@H](C)[C@H](O)[C@@H](C)CC)/C=C/[C@H]1OC(=O)C=C[C@@H]1C | 1.87 µM | < 0.01 µM |
| COc1ccc(OC)c(N2CC(N)C2=O)c1 (configuration not stated) | > 100 µM | – |
| Nc1ccccc1SC(CC(=O)c1ccccc1)c1cccc([N+](=O)[O-])c1 (configuration not stated) | 20.5 µM | 3.11 µM |
| O=C(/C=C/c1ccc([N+](=O)[O-])cc1)c1ccc(NCc2nc3ccccc3[nH]2)cc1 | 16.3 µM | – |
| Cc1cccc(C)c1NC(=O)CCCC(=O)C1/C(=N/NC(=O)CC#N)CCC/C1=N\NC(=O)CC#N (configuration not stated) | > 100 µM | – |

| SMILES | TGI | GI50 |
| --- | --- | --- |
| COc1ccc2nc(NC(=O)CSc3nnc4n3S(=O)(=O)c3ccccc3N4c3ccccc3)sc2c1 | > 100 µM | > 100 µM |
| Cc1ccc(-n2c3nc(=O)[nH]c(=O)c-3cc3cc([N+](=O)[O-])ccc32)cc1 | 68.2 µM | 23 µM |
| COC(=O)C(CCCN1C(=O)c2ccccc2C1=O)C(=O)OC | > 100 µM | – |
| COc1nc(NC2OC(COC(C)=O)C(OC(C)=O)C(OC(C)=O)C2OC(C)=O)c2c(OC(C)=O)cc(=O)oc2n1 (configuration not stated) | > 100 µM | – |
| CC(C)(C)c1cc2c(O)c3cccc4c(=O)c5cccc6c5-c(c34)c2c(c1)c6=O | > 100 µM | – |
| COc1cc(/C(C#N)=C/c2nc3c(N4CCOCC4)nc(Cl)nc3n2C)cc(OC)c1OC | 5.17 µM | < 0.01 µM |
| O=C1C=CC(=O)c2nc3c(cc21)CCC3 | > 100 µM | – |
| O=S(=O)(N/N=C/c1cccc(/C=N/NS(=O)(=O)c2ccccc2)c1)c1ccccc1 | > 100 µM | – |
| CCCCN(CCCC)C(=O)C(=O)C(C(=O)c1ccc(OC)cc1)c1ccc(OC)cc1 (configuration not stated) | > 100 µM | – |
| C=C(C)CCOC(c1ccccc1)(c1ccccc1)c1ccccc1 | > 100 µM | – |
| COc1ccc(C)cc1-c1cc(Sc2ccccc2)c(-c2cc(C)ccc2OC)o1 | > 31.6 µM | – |
| CCn1c(-c2nonc2N)nc2c(C#CC(C)(C)O)nc(OC[C@@H](N)c3ccccc3)cc21 | 9.4 µM | 5.08 µM |
| Cn1ccc2c3c(Oc4ccc(NC(N)=O)cc4)ccnc3ccc21 | > 100 µM | > 100 µM |
| CC(=O)O/N=C(/C)c1ccccc1O | > 100 µM | – |
| CC(=O)OCCOCNC(=S)N/N=C(\C)c1cnccn1 | > 100 µM | – |
| O=C(Nc1ccccc1-c1nn(C(=S)Nc2ccccc2)c(=S)n(C(=S)Nc2ccccc2)c1=O)C(F)(F)F | 50.3 µM | – |
| O=c1c(-c2ccccc2)c2oc(c1-c1ccccc1)CSCc1cccc(c1)CSC2 | > 100 µM | – |
| CN(C)CCn1c2c3ccccc3ccc2c2oc(=O)c3ccccc3c21 | 8.94 µM | – |

Test system: OVCAR-3 ovarian
Assay: inhibition of tumour cell growth, NCI panel, 48 h

| SMILES | TGI [µM] | GI50 [µM] |
| --- | --- | --- |
| COC(=O)CC(c1ccccc1)C1(c2ccccc2)SCCS1 (configuration not stated) | > 290 | – |
| CCOC(=O)C1=C(C(=O)OCC)C2c3ccccc3C=CN2C(C(=O)OCC)=C(SC)S1 (configuration not stated) | > 100 | – |
| CCCCCCCCCCCCCCCC[N+](C)(C)Cc1ccccc1 | 2.53 | 1.21 |
| CC(=O)NNc1nc(C)c(C(=O)/C=C/c2ccc(NC(C)=O)cc2)s1 | > 100 | – |
| CCCCCC[C@@H]1CCC2C(CO)[C@@H](O)CC[C@@H]2C1 (some centres not stated) | 29.3 | – |
| NC(=O)c1ccccc1NC(=O)C(=O)C(C(=O)c1ccc(Cl)c(Cl)c1)C1OC(=O)c2ccccc21 (configuration not stated) | > 100 | – |
| S=c1sc2c(n1-c1ccccc1)NC=NC2S (configuration not stated) | > 100 | – |
| Cc1ccc(/C=C/C(=O)CCN(C)C)cc1 | 39.4 | – |
| Cc1ccc(Oc2ccc(C)cc2N)cc1 | > 100 | – |
| c1ccc(NCn2cnc3ccccc32)cc1 | > 100 | – |
| O=C(Oc1ccc(Cl)cc1)c1ccccc1Nc1ccnc(C(F)(F)F)c1 | 26.4 | 11.6 |
| Cc1cc2c(C)[nH]nc2c(C(=O)O)c1C | > 100 | – |
| N#C/C(=C\c1cccc(Cl)c1Cl)c1ccccc1 | > 92.6 | – |
| C/C(=N/Nc1ccc([N+](=O)[O-])cc1[N+](=O)[O-])C(CC(C(=O)NCc1ccccc1)/C(C)=N\Nc1ccc([N+](=O)[O-])cc1[N+](=O)[O-])C(=O)NCc1ccccc1 (configuration not stated) | 24.5 | – |
| COc1ccc(-c2cn[nH]c2-c2cc(OC)c(OC)c(OC)c2)cc1 | 0.0694 | 0.0228 |
| N[C@@H]1CCCC[C@@H]1N.O=P([O-])([O-])CN(CCN(CP(=O)([O-])[O-])CP(=O)([O-])[O-])CP(=O)([O-])[O-].[Pt+2] | > 25 | > 25 |
| CCC(=C/[C@H](C)C/C=C/C(C)=C/[C@@H](C)C(=O)[C@@H](C)[C@H](O)[C@@H](C)CC)/C=C/[C@H]1OC(=O)C=C[C@@H]1C | 3.96 | < 0.01 |
| COc1ccc(OC)c(N2CC(N)C2=O)c1 (configuration not stated) | > 100 | – |
| Nc1ccccc1SC(CC(=O)c1ccccc1)c1cccc([N+](=O)[O-])c1 (configuration not stated) | 25.8 | 12.8 |
| O=C(/C=C/c1ccc([N+](=O)[O-])cc1)c1ccc(NCc2nc3ccccc3[nH]2)cc1 | 11.8 | – |

| SMILES | TGI [µM] | GI50 [µM] |
| --- | --- | --- |
| Cc1cccc(C)c1NC(=O)CCCC(=O)C1/C(=N/NC(=O)CC#N)CCC/C1=N\NC(=O)CC#N (configuration not stated) | > 100 | – |
| COc1ccc2nc(NC(=O)CSc3nnc4n3S(=O)(=O)c3ccccc3N4c3ccccc3)sc2c1 | > 100 | > 100 |
| O=c1ccc2ccccc2cc1[O-].O=c1ccc2ccccc2cc1[O-].[O]=[U+2]=[O] | 50.1 | 8.28 |
| Cc1ccc(-n2c3nc(=O)[nH]c(=O)c-3cc3cc([N+](=O)[O-])ccc32)cc1 | 4.79 | 2.18 |
| COC(=O)C(CCCN1C(=O)c2ccccc2C1=O)C(=O)OC | > 100 | – |
| COc1nc(NC2OC(COC(C)=O)C(OC(C)=O)C(OC(C)=O)C2OC(C)=O)c2c(OC(C)=O)cc(=O)oc2n1 (configuration not stated) | > 100 | – |
| CC(C)(C)c1cc2c(O)c3cccc4c(=O)c5cccc6c5-c(c34)c2c(c1)c6=O | > 100 | – |
| COc1cc(/C(C#N)=C/c2nc3c(N4CCOCC4)nc(Cl)nc3n2C)cc(OC)c1OC | < 0.01 | < 0.01 |
| O=C1C=CC(=O)c2nc3c(cc21)CCC3 | 32 | – |
| O=S(=O)(N/N=C/c1cccc(/C=N/NS(=O)(=O)c2ccccc2)c1)c1ccccc1 | > 100 | – |
| CCCCN(CCCC)C(=O)C(=O)C(C(=O)c1ccc(OC)cc1)c1ccc(OC)cc1 (configuration not stated) | > 100 | – |
| C=C(C)CCOC(c1ccccc1)(c1ccccc1)c1ccccc1 | > 100 | – |
| COc1ccc(C)cc1-c1cc(Sc2ccccc2)c(-c2cc(C)ccc2OC)o1 | > 31.6 | – |
| CCn1c(-c2nonc2N)nc2c(C#CC(C)(C)O)nc(OC[C@@H](N)c3ccccc3)cc21 | 8.23 | 4.24 |
| Cn1ccc2c3c(Oc4ccc(NC(N)=O)cc4)ccnc3ccc21 | > 100 | > 100 |
| CC(=O)O/N=C(/C)c1ccccc1O | > 100 | – |
| CC(=O)OCCOCNC(=S)N/N=C(\C)c1cnccn1 | > 100 | – |
| O=C(Nc1ccccc1-c1nn(C(=S)Nc2ccccc2)c(=S)n(C(=S)Nc2ccccc2)c1=O)C(F)(F)F | > 72.5 | – |
| O=c1c(-c2ccccc2)c2oc(c1-c1ccccc1)CSCc1cccc(c1)CSC2 | 77 | – |
| CN(C)CCn1c2c3ccccc3ccc2c2oc(=O)c3ccccc3c21 | 16.9 | – |
